Test results as given in US20130065922A1, “NOVEL AMIDES AS FUNGICIDES” (priority 2010, published 2013).
Read-outs that look alike come from different tables or passages of the source.

Key:
Phytophthora infestans = test: whole plant or invertebrate; format: in vivo; conditions: in Solanum lycopersicum, foliar, read-out: inhibit fungal infestation
Pythium ultimum = test: Pythium ultimum/Liquid Culture (Seedling Damping Off); format: cell-based; conditions: Globisporangium ultimum, read-out: inhibit fungal infestation
Plasmopara viticola = test: whole plant or invertebrate; format: in vivo; conditions: foliar, read-out: inhibit fungal infestation
[1] = tested on: Blumeria graminis f. Sp. tritici (Erysiphe graminis f. Sp. tritici); test: Blumeria graminis f. Sp. tritici (Erysiphe graminis f. Sp. tritici)/Wheat/Leaf Disc Preventative (Powdery Mildew on Wheat); format: in vivo; conditions: foliar, read-out: inhibit fungal infestation
[2] = tested on: Phaeosphaeria nodorum (Septoria nodorum); test: Phaeosphaeria nodorum (Septoria nodorum)/Wheat/Leaf Disc Preventative (Glume Blotch); format: in vivo; conditions: Parastagonospora nodorum, foliar; 200 ppm; wheat leaf segments cv. Kanzler, preventative; 5-7 days after application; untreated control infected to over 80%; read-out: inhibit fungal infestation
[3] = 200 ppm, liquid culture (PDB), 24° C., growth inhibition photometrically 2-3 days after application
[4] = 200 ppm, wheat leaf segments cv. Kanzler, preventative, 6-8 days after application, untreated control infected to over 80%

| SMILES | inhibition at 200 ppm (Phytophthora infestans) | inhibition at 200 ppm (Pythium ultimum; [3]) | melting point | inhibition at 200 ppm (Plasmopara viticola) | inhibition at 200 ppm [1, 4] | inhibition at 200 ppm [2] | inhibition at 200 ppm (Pythium ultimum) | inhibition at 200 ppm [1] |
| --- | --- | --- | --- | --- | --- | --- | --- | --- |
| C#CC(C)(C)NC(=O)C(Oc1cc(Cl)c2ncc(SC)cc2c1)SC (centres unmarked) [Compound 32, 2-(8-Chloro-3-methylsulfanyl-quinolin-6-yloxy)-N-(1,1-dimethyl-prop-2-ynyl)-2-methylsulfanyl-acetamide] | ≥ 80% | ≥ 80% | 157 to 159 °C | ≥ 80% |  |  |  |  |
| C#CC(C)(C)NC(=O)C(CC)Oc1ccc2ncc(OC)cc2c1 (centres unmarked) [Compound 7, N-(1,1-Dimethyl-prop-2-ynyl)-2-(3-methoxy-quinolin-6-yloxy)-butyramide] | ≥ 80% | ≥ 80% | 109 to 112 °C |  | ≥ 80% |  |  |  |
| CO/N=C/C(C)(C)NC(=O)C(OC)Oc1cc(Cl)c2ncc(SC)cc2c1 (centres unmarked) [Compound 47, 2-(8-Chloro-3-methylsulfanyl-quinolin-6-yloxy)-2-methoxy-N-(2-methoxyimino-1,1-dimethyl-ethyl)-acetamide] |  |  | 121 to 123 °C | ≥ 80% | ≥ 80% |  |  |  |
| CCC(Oc1ccc2ncc(SC)cc2c1)C(=O)NC(C)(C)C (centres unmarked) [Compound 30, N-tert-Butyl-2-(3-methylsulfanyl-quinolin-6-yloxy)-butyramide] | ≥ 80% | ≥ 80% | 113 to 115 °C | ≥ 80% | ≥ 80% |  |  |  |
| CO/N=C/C(C)(C)NC(=O)C(OC)Oc1cc(C)c2ncc(SC)cc2c1 (centres unmarked) [Compound 43, 2-Methoxy-N-(2-methoxyimino-1,1-dimethyl-ethyl)-2-(8-methyl-3-methylsulfanyl-quinolin-6-yloxy)-acetamide] |  |  | 109 to 111 °C | ≥ 80% |  |  |  |  |
| CO/N=C/C(C)(C)NC(=O)C(OC)Oc1ccc2ncc(SC)cc2c1 (centres unmarked) [Compound 56, 2-Methoxy-N-(2-methoxyimino-1,1-dimethyl-ethyl)-2-(3-methylsulfanyl-quinolin-6-yloxy)-acetamide] | ≥ 80% | ≥ 80% | 98 to 100 °C |  |  |  |  |  |
| CCOc1cnc2ccc(OC(SC)C(=O)NC(C)(C)C)cc2c1 (centres unmarked) [Compound 26, N-tert-Butyl-2-(3-ethoxy-quinolin-6-yloxy)-2-methylsulfanyl-acetamide] |  | ≥ 80% | 120 to 123 °C |  | ≥ 80% | ≥ 80% |  |  |
| COCC(C)(C#N)NC(=O)C(Oc1ccc2ncc(OC)cc2c1)SC (centres unmarked) [Compound 3, N-(1-Cyano-2-methoxy-1-methyl-ethyl)-2-(3-methoxy-quinolin-6-yloxy)-2-methylsulfanyl-acetamide] |  | ≥ 80% | 75 to 77 °C |  | ≥ 80% |  |  |  |
| COc1cnc2ccc(OC(SC)C(=O)NC(C)(C)C)cc2c1 (centres unmarked) [Compound 2, N-tert-Butyl-2-(3-methoxy-quinolin-6-yloxy)-2-methylsulfanyl-acetamide] | ≥ 80% | ≥ 80% | 110 to 115 °C |  | ≥ 80% |  |  |  |
| COCC#CC(C)(C)NC(=O)C(OC)Oc1cc(Cl)c2ncc(SC)cc2c1 (centres unmarked) [Compound 49, 2-(8-Chloro-3-methylsulfanyl-quinolin-6-yloxy)-2-methoxy-N-(4-methoxy-1,1-dimethyl-but-2-ynyl)-acetamide] |  |  | 85 to 87 °C | ≥ 80% |  |  |  |  |
| CCC(Oc1ccc2ncc(OC)cc2c1)C(=O)NC(C)(C)C (centres unmarked) [Compound 12, N-tert-Butyl-2-(3-methoxy-quinolin-6-yloxy)-butyramide] | ≥ 80% | ≥ 80% | 131 to 133 °C |  |  |  |  |  |
| CSc1cnc2ccc(OC(SC)C(=O)NC(C)(C)C#N)cc2c1 (centres unmarked) [Compound 68, N-(Cyano-dimethyl-methyl)-2-methylsulfanyl-2-(3-methylsulfanyl-quinolin-6-yloxy)-acetamide] | ≥ 80% | ≥ 80% |  | ≥ 80% |  |  |  |  |
| CO/N=C/C(C)(C)NC(=O)C(OC)Oc1ccc2ncc(OC)cc2c1 (centres unmarked) [Compound 8, 2-Methoxy-N-(2-methoxyimino-1,1-dimethyl-ethyl)-2-(3-methoxy-quinolin-6-yloxy)-acetamide] | ≥ 80% | ≥ 80% | 100 to 106 °C |  | ≥ 80% |  |  |  |
| CCC(Oc1ccc2ncc(OC)cc2c1)C(=O)NC(C)(C)/C=N/OC (centres unmarked) [Compound 6, N-(2-Methoxyimino-1,1-dimethyl-ethyl)-2-(3-methoxy-quinolin-6-yloxy)-butyramide] |  | ≥ 80% | 87 to 89 °C |  | ≥ 80% |  |  |  |
| CC#CC(C)(C)NC(=O)C(Oc1cc(C)c2ncc(OCC)cc2c1)SC (centres unmarked) [Compound 24, N-(1,1-Dimethyl-but-2-ynyl)-2-(3-ethoxy-8-methyl-quinolin-6-yloxy)-2-methylsulfanyl-acetamide] |  |  | 137 to 139 °C | ≥ 80% |  |  | ≥ 80% | ≥ 80% |
| CC#CC(C)(C)NC(=O)C(OC)Oc1cc(C)c2ncc(SC)cc2c1 (centres unmarked) [Compound 46, N-(1,1-Dimethyl-but-2-ynyl)-2-methoxy-2-(8-methyl-3-methylsulfanyl-quinolin-6-yloxy)-acetamide] |  |  | 102 to 104 °C | ≥ 80% |  |  |  |  |
| CO/N=C/C(C)(C)NC(=O)C(Oc1cc(Cl)c2ncc(SC)cc2c1)SC (centres unmarked) [Compound 31, 2-(8-Chloro-3-methylsulfanyl-quinolin-6-yloxy)-N-(2-methoxyimino-1,1-dimethyl-ethyl)-2-methylsulfanyl-acetamide] |  | ≥ 80% | 168 to 170 °C | ≥ 80% |  |  |  |  |
| CCC(Oc1cc(Cl)c2ncc(SC)cc2c1)C(=O)NC(C)(C)/C=N/OC (centres unmarked) [Compound 39, 2-(8-Chloro-3-methylsulfanyl-quinolin-6-yloxy)-N-(2-methoxyimino-1,1-dimethyl-ethyl)-butyramide] |  |  | 119 to 121 °C | ≥ 80% |  |  |  |  |
| COCC(C)(C#N)NC(=O)C(Oc1cc(C)c2ncc(OC)cc2c1)SC (centres unmarked) [Compound 18, N-(1-Cyano-2-methoxy-1-methyl-ethyl)-2-(3-methoxy-8-methyl-quinolin-6-yloxy)-2-methylsulfanyl-acetamide] | ≥ 80% | ≥ 80% | 123 to 129 °C | ≥ 80% | ≥ 80% |  |  |  |
| C#CC(C)(C)NC(=O)C(CC)Oc1ccc2ncc(SC)cc2c1 (centres unmarked) [Compound 29, N-(1,1-Dimethyl-prop-2-ynyl)-2-(3-methylsulfanyl-quinolin-6-yloxy)-butyramide] | ≥ 80% | ≥ 80% | 121 to 123 °C | ≥ 80% | ≥ 80% |  |  |  |
| CC#CC(C)(C)NC(=O)C(Oc1cc(Cl)c2ncc(SC)cc2c1)SC (centres unmarked) [Compound 33, 2-(8-Chloro-3-methylsulfanyl-quinolin-6-yloxy)-N-(1,1-dimethyl-but-2-ynyl)-2-methylsulfanyl-acetamide] | ≥ 80% |  | 153 to 155 °C | ≥ 80% |  |  | ≥ 80% |  |
| CC#CC(C)(C)NC(=O)C(OC)Oc1cc(Cl)c2ncc(SC)cc2c1 (centres unmarked) [Compound 48, 2-(8-Chloro-3-methylsulfanyl-quinolin-6-yloxy)-N-(1,1-dimethyl-but-2-ynyl)-2-methoxy-acetamide] |  |  | 90 to 92 °C | ≥ 80% |  |  |  |  |
| C#CC(C)(C)NC(=O)C(CC)Oc1cc(C)c2ncc(SC)cc2c1 (centres unmarked) [Compound 37, N-(1,1-Dimethyl-prop-2-ynyl)-2-(8-methyl-3-methylsulfanyl-quinolin-6-yloxy)-butyramide] |  | ≥ 80% | 134 to 136 °C | ≥ 80% |  | ≥ 80% |  |  |
| CO/N=C/C(C)(C)NC(=O)C(Oc1ccc2ncc(OC)cc2c1)SC (centres unmarked) [Compound 1, N-(2-Methoxyimino-1,1-dimethyl-ethyl)-2-(3-methoxy-quinolin-6-yloxy)-2-methylsulfanyl-acetamide] | ≥ 80% | ≥ 80% | 122 to 124 °C |  | ≥ 80% |  |  |  |
| C#CC(C)(C=C)NC(=O)C(Oc1ccc2ncc(SC)cc2c1)SC (centres unmarked) [Compound 63, N-(1-Ethynyl-1-methyl-allyl)-2-methylsulfanyl-2-(3-methylsulfanyl-quinolin-6-yloxy)-acetamide] | ≥ 80% | ≥ 80% | 121 to 123 °C | ≥ 80% |  |  |  |  |
| CSc1cnc2ccc(OC(SC)C(=O)NC(C)(C)CCF)cc2c1 (centres unmarked) [Compound 67, N-(3-Fluoro-1,1-dimethyl-propyl)-2-methylsulfanyl-2-(3-methylsulfanyl-quinolin-6-yloxy)-acetamide] |  |  |  | ≥ 80% | ≥ 80% |  |  |  |
| COCC#CC(C)(C)NC(=O)C(Oc1ccc2ncc(OC)cc2c1)SC (centres unmarked) [Compound 4, N-(4-Methoxy-1,1-dimethyl-but-2-ynyl)-2-(3-methoxy-quinolin-6-yloxy)-2-methylsulfanyl-acetamide] | ≥ 80% |  | 95 to 98 °C | ≥ 80% |  |  | ≥ 80% | ≥ 80% |
| CCSc1cnc2ccc(OC(SC)C(=O)NC(C)(C)/C=N/OC)cc2c1 (centres unmarked) [Compound 64, 2-(3-Ethylsulfanyl-quinolin-6-yloxy)-N-(2-methoxyimino-1,1-dimethyl-ethyl)-2-methylsulfanyl-acetamide] | ≥ 80% | ≥ 80% | 105 to 107 °C | ≥ 80% | ≥ 80% |  |  |  |
